Laboratory results taken from paper PMC11796312, “Multifunctional, Fluorene‐Based Modulator of Cholinergic and GABAergic Neurotransmission as a Novel Drug Candidate for Palliative Treatment of Alzheimer's Disease” (Angewandte Chemie (International Ed. in English), 2024).
Where “and” joins values, the source holds several entries; their conditions need not be identical. Equal values may be shown once. Entries after “also recorded” stand apart in the source; their conditions may differ. Read-outs that look alike come from different tables or passages of the source.

Experiments:
[1] = system: SIM-A9 cells; assay: Intracellular RONS, DCFH-DA probe, SIM-A9; assay type: cell-based, mouse
[2] = system: ICR-CD1 mice; assay: Acute toxicity study i.p. (MTD, biochemistry, histopathology); assay type: in vivo; parameters: key to prostration / tremor / convulsions / hyper/hypoventilation / drop of eyelids / ataxia / stooped posture: mild (+); moderate (++); severe (+++); conditions: for stooped posture: Female 1
Method: (§1) Toxicology and pharmacokinetic in vivo study
(§2) ICR-CD1 mice weighing 20–25 g were purchased from Velaz (Prague, Czech Republic).
(§3) They were kept in an air-conditioned room with the light from 07:00 to 19:00 hours and were allowed access to standard food and tap water ad libitum. The mice were divided into groups […]
(§4) Ethical approval statement
(§5) The experimental animals were handled under the supervision of the Ethics Committee of the […]
(§6) 706288/2023-1457) and the treatment of animals was in full accordance with ethical standards laid down in respective Czech and EU regulations.
(§7) Design of in vivo experiments
(§8) Acute toxicity study – Maximal tolerated dose, biochemical analysis, and histopathologic […]
(§9) Mice (ICR-CD1, Velaz, Prague, Czech Republic) were randomly assigned to the experimental groups of two males and two females per one applied dose of 6. 6 was administered intraperitoneally (i.p., 0.1 mL/10 g of animal weight; 1% Tween 80). Several doses were administered to identify the toxic profile of tested compounds and establish the Maximal Tolerated Dose (MTD, i.p.). Treated animals were intensively observed for signs of toxicity, such as respiratory, cardiovascular, and nervous system disability. Weight loss or reduced food consumption was assessed according to the FELASA classification[39] in the first two hours and then periodically for the subsequent 46 hours. The toxicity signs were classified according to a previously published study.[40]
(§10) All animals surviving the 48 hours were deeply euthanized by CO2 and subjected to basic macroscopic necropsy. The blood was collected for biochemical analysis, and selected organs (kidney and liver) were collected for histopathologic examination.
(§11) Venous blood was collected into heparinized tubes (Scanlab Systems, Prague, Czech Republic). Plasma was subsequently separated (3,000 × g for 10 min, 4 °C) using centrifuge U-320R (Boeco, Hamburg, Germany). The concentration of urea and creatinine and the activity of alanine aminotransferase (ALT), aspartate aminotransferase (AST), alkaline […]
(§12) phosphatase (ALP), amylase, and lactate dehydrogenase (LDH) were measured in the accredited biochemical laboratory of the Department of Clinical Biochemistry and Diagnostics, University Hospital, Hradec Kralove, Czech Republic. Statistical data analysis was performed through IBM SPSS Statistics version 26 (IBM, Armonk, NY, USA) using the Kolmogorov-Smirnov and Shapiro-Wilk tests to test data normality. Due to normally distributed data, the Student´s t-test was used to assess the differences compared with the control group (p ≤ 0.05).
(§13) Samples of the liver and kidney were used for standard histopathological examination. Organs were fixed with 10% neutral buffered formalin (Bamed s.r.o., Ceske Budejovice, Czech Republic), histologically processed, and stained with hematoxylin and eosin (both Merck) according to Pejchal et al.[41] The histopathological changes were evaluated using a BX-51 microscope (Olympus, Tokyo, Japan). […]
(§14) The time intervals
(§15) PK studies). The samples were centrifuged at 3,000 × g for 10 min (10 °C), and the plasma samples were stored at -80 °C until the HPLC analysis.

[3] = as above; assay type: in vivo, mice; parameters: key to prostration / tremor / convulsions / hyper/hypoventilation / drop of eyelids / ataxia / stooped posture: mild (+); moderate (++); severe (+++); conditions: both sexes, ICR-CD1, mouse, in vivo, ip, male and female mice; read-out: maximal tolerated dose (MTD)
Method: as §1, §2, §3, §4, §5, §6, §7, §8, §9, §10, §11, §12, §13, §14, §15

[4] = molecular target: T1, human serotonin 5-HT7 receptor (Homo sapiens, UniProt P34969); assay: cAMP 5-HT7 functional assay; assay type: cell-based
T1 construct: host or cells: CHO-K1 (with CRE-bla reporter)
Method: Functional assays for 5-HT7 receptor
Test and reference compounds were dissolved in dimethyl sulfoxide (DMSO) at a
concentration of 10 mM. Serial dilutions were prepared in a 96-well microplate in assay
buffer, and 8 to 10 concentrations were tested. For the 5-HT7, adenylyl cyclase activity was
The functional assay was performed on cells expressing the human 5-
CHO-K1 cells were transfected with a beta-
lactamase (bla) reporter gene under the control of the cyclic AMP response element (CRE)
(Life Technologies). Thawed cells were resuspended in stimulation buffer (HBSS, 5 mM
HEPES, 0.5 IBMX, and 0.1% BSA at pH 7.4) at 2x10^5 cells/ml for 5-HT7 receptor. The same
volume (10 μl) of cell suspension was added to tested compounds for the 5 -HT7 receptor.
Samples were loaded onto a white opaque half-area 96-well microplate. The antagonist
The agonist and antagonist were added simultaneously. Cell stimulation was
performed for 1 h at room temperature. After incubation, cAMP measurements were
performed with homogeneous TR-FRET immunoassay using the LANCE Ultra cAMP kit
(PerkinElmer, USA). The volume of 10 μl of EucAMP Tracer Working Solution and 10 μl of
ULight-anti-cAMP Tracer Working Solution were added, mixed, and incubated for 1 h.
TR-FRET signal was read on an EnVision microplate reader (PerkinElmer, USA). IC50 and
EC50 were determined by nonlinear regression analysis using GraphPad Prism 9.0 software.

[5] = 20 mg/kg i.p., Male 1, Female 1, Female 2
[6] = 40 mg/kg i.p., Male 1, Female 1, Female 2
[7] = 60 mg/kg i.p., Male 1, Male 2, Female 2
[8] = female mice, 10 mg/kg, Female 1, Female 2
[9] = female mice, 20 mg/kg, Female 1, Female 2
[10] = female mice, 40 mg/kg, Female 1, Female 2
[11] = female mice, 60 mg/kg, Female 1, Female 2
[12] = male mice, 10 mg/kg i.p., Male 1, Male 2
[13] = male mice, 20 mg/kg i.p., Male 1
[14] = male mice, 20 mg/kg i.p., Male 1, Male 2
[15] = male mice, 40 mg/kg i.p., Male 1, Male 2
[16] = male mice, 60 mg/kg i.p., Male 1, Male 2
[17] = male mice, 60 mg/kg i.p., Male 1, Male 2, 60 mg/kg

T1 sequence (P34969 whole entry): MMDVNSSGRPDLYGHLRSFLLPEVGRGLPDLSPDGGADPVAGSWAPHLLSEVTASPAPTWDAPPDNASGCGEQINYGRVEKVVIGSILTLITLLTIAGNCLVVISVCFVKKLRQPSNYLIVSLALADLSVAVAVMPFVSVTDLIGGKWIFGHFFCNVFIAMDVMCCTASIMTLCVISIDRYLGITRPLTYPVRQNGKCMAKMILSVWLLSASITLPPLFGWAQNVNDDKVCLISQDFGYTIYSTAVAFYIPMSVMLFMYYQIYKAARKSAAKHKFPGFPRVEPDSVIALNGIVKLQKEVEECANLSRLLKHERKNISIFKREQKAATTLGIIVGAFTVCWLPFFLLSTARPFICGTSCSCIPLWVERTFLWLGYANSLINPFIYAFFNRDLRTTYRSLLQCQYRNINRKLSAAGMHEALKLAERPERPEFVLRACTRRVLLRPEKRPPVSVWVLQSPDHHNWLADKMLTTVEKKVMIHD

O[C@H](CNCC1CC1)[C@H](Cc1ccccc1)NC1c2ccccc2-c2ccccc21 [Compound 6]
increase in intracellular RONS ([1]; IC50, ½ IC50, ¼ IC50, 1, 4, 24 h): no significant increase
intracellular RONS, times lower ([1]; conc. = IC50, 24 h): 1.63 fold
signs of poisoning at MTD ([2]; 10 mg/kg i.p.): mild to moderate signs of poisoning may occur
ALP, plasma ([2]; 10 mg/kg i.p., 48 h): 68.4 ± 27.2 U/L
ALT, plasma ([2]; 10 mg/kg i.p., 48 h): 29.0 ± 6.5 U/L
AST, plasma ([2]; 10 mg/kg i.p., 48 h): 56.8 ± 6.6 U/L
Amylase, plasma ([2]; 10 mg/kg i.p., 48 h): 2960 ± 500 U/L and 2955 ± 501 U/L
LDH, plasma ([2]; 10 mg/kg i.p., 48 h): 275 ± 94 U/L
Urea, plasma ([2]; 10 mg/kg i.p., 48 h): 33.8 ± 8.2 mg/dL
blood biochemistry vs control ([2]; 10 mg/kg i.p., 48 h, Student's t-test): No significant differences
Necropsy ([2]; 10 mg/kg i.p., 48 h, table lines in order Male 1, Male 2, Female 1, Female 2): no macroscopic pathology; also recorded: no findings; also recorded: mild hyperemia in the peritoneal cavity
Histopathological findings, liver and renal tissue ([2]; 10 mg/kg i.p., table lines in order Male 1, Male 2, Female 1, Female 2): no tissue damage; also recorded: dg: mild peritoneal irritation; also recorded: no findings
ALP, plasma ([2]; 20 mg/kg i.p., N = 3): 60.4 ± 28.6 U/L
ALT, plasma ([2]; 20 mg/kg i.p., N = 3): 27.0 ± 15.6 U/L
AST, plasma ([2]; 20 mg/kg i.p., N = 3): 55.6 ± 6.7 U/L
Amylase, plasma ([2]; 20 mg/kg i.p., N = 3): 3129 ± 444 U/L
LDH, plasma ([2]; 20 mg/kg i.p., N = 3): 223 ± 38 U/L
Urea, plasma ([2]; 20 mg/kg i.p., N = 3): 31.8 ± 6.7 mg/dL
Histopathological findings, liver and renal tissue [2, 5]: dg: peritonitis
Necropsy [2, 5]: moderate hyperemia in the abdominal cavity
ALP, plasma ([2]; 40 mg/kg i.p., N = 3): 63.5 ± 26.9 U/L
ALT, plasma ([2]; 40 mg/kg i.p., N = 3): 57.1 ± 16.5 U/L
AST, plasma ([2]; 40 mg/kg i.p., N = 3): 82.4 ± 54.0 U/L
Amylase, plasma ([2]; 40 mg/kg i.p., N = 3): 3485 ± 894 U/L
LDH, plasma ([2]; 40 mg/kg i.p., N = 3): 511 ± 423 U/L
Urea, plasma ([2]; 40 mg/kg i.p., N = 3): 93.6 ± 60.4 mg/dL
Histopathological findings, liver and renal tissue [2, 6]: dg: severe peritonitis
Necropsy [2, 6]: dilatation of small and large intestine loops; also recorded: dilatation of the stomach, small and large
ALP, plasma ([2]; 60 mg/kg i.p., N = 3): 71.4 ± 23.4 U/L
ALT, plasma ([2]; 60 mg/kg i.p., N = 3): 230.4 ± 140.7 U/L
AST, plasma ([2]; 60 mg/kg i.p., N = 3): 318.0 ± 213.7 U/L
Amylase, plasma ([2]; 60 mg/kg i.p., N = 3): 3723 ± 448 U/L
LDH, plasma ([2]; 60 mg/kg i.p., N = 3): 1101 ± 562 U/L
Urea, plasma ([2]; 60 mg/kg i.p., N = 3): 142.9 ± 145.2 mg/dL
Histopathological findings, liver and renal tissue [2, 7]: dg: severe peritonitis
Necropsy [2, 7]: dilatation of small and large intestine loops
hyper/hypoventilation ([2]; female mice, 10 mg/kg i.p., lines in order Female 1, Female 2): +
drop of eyelids [2, 8]: +
prostration [2, 8]: +
tremor [2, 8]: + and ++
convulsions ([2]; female mice, 10 mg/kg, Female 2): +
stooped posture ([2]; female mice, 20 mg/kg): +
drop of eyelids [2, 9]: +
hyper/hypoventilation [2, 9]: +
prostration [2, 9]: ++
tremor [2, 9]: + and ++
weight at 24 h (%) [2, 9]: -4.2% and -1.8%
weight at 48 h (%) [2, 9]: -6.5% and 0.0%
drop of eyelids [2, 10]: +
hyper/hypoventilation [2, 10]: ++
tremor [2, 10]: +
weight at 24 h (%) [2, 10]: -4.5% and -3.5%
weight at 48 h (%) [2, 10]: -9.1% and -7.1%
stooped posture ([2]; female mice, 60 mg/kg): +
drop of eyelids [2, 11]: +
hyper/hypoventilation [2, 11]: ++
tremor [2, 11]: +
weight at 24 h (%) [2, 11]: -5.0% and -6.6%
mortality ([2]; female mice, 60 mg/kg, Female 1, before the 48-hour check-up): died overnight
weight at 48 h (%) ([2]; female mice, 60 mg/kg, Female 2): -7.5%
prostration [2, 12]: +
tremor [2, 12]: +
hyper/hypoventilation ([2]; male mice, 10 mg/kg i.p., lines in order Male 1, Male 2): +
weight at 24 h (%) [2, 13]: -0.2%
weight at 48 h (%) [2, 13]: +1.0%
ataxia [2, 14]: +
drop of eyelids [2, 14]: +
hyper/hypoventilation [2, 14]: +
prostration [2, 14]: ++
tremor [2, 14]: +
convulsions ([2]; male mice, 20 mg/kg i.p., Male 2): +++
mortality ([2]; male mice, 20 mg/kg i.p., Male 2, before the 24-hour check-up): died overnight
weight at 48 h (%) ([2]; male mice, 40 mg/kg i.p., Male 1): -6.7%
drop of eyelids [2, 15]: +
hyper/hypoventilation [2, 15]: ++
prostration [2, 15]: ++
tremor [2, 15]: +
weight at 24 h (%) ([2]; male mice, 40 mg/kg i.p., Male 1, Male 2, 40 mg/kg): -6.1% and -7.0%
mortality ([2]; male mice, 40 mg/kg i.p., Male 2, before the 48-hour check-up): died overnight
ataxia ([2]; male mice, 60 mg/kg i.p., Male 1): +
drop of eyelids [2, 16]: +
hyper/hypoventilation [2, 16]: ++
prostration [2, 16]: +++
tremor [2, 16]: +
weight at 24 h (%) [2, 17]: -3.6% and -10.5%
weight at 48 h (%) [2, 17]: -16.0% and -15.6%
MTD at 48 h [3]: 10 mg/kg
Emax ([4]; read-out: 5-HT7 agonist mode E max % [10^-5 M]): 8%
Emax ([4]; read-out: 5-HT7 antagonist mode E max %): 0%
